According to patent US20260364185A1, “Estrogen Receptor Modulator and Use Thereof” (JIANGSU VCARE PHARMATECH CO., LTD., priority 2023, published 2026):
pIC50: −log10 of the molar value.

System: MCF7 cells
Assay: MCF7 cell activity test (CCK8 proliferation inhibition)
Type: cell-based
Settings: Homo sapiens, MCF7, 144 h, 6 days incubation
Description: Experimental Example 1: MCF7 cell activity test
Cell culture: MCF7 cells (culture conditions: MEM medium+20% FBS+1% essential amino acids++1 mg/100 ml insulin, 37° C., 5% CO2). Plating: The cells subcultured into the logarithmic growth phase were collected and transferred into a centrifuge tube, and centrifuged at 800 rpm for 5 min. The cells were resuspended in complete medium and counted. The cells were diluted and adjusted to a final concentration of 30,000 cells/mL. The cells were then seeded into a 96-well plate with 100 μL per well and incubated in an incubator overnight. Administration: Each group of drug solutions was added into the 96-well plate, 100 μL per well, n=3 for each drug concentration. Meanwhile, negative wells (n=6) and blank wells (n=3) were set up. The 96-well plate was incubated in the incubator for further 6 days. CCK8 reagent was added to the 96-well plate, 20 μL per well, and then the plate was placed in the incubator for further 4 h. The absorbance of the solution was measured at a wavelength of 450 nm using an enzyme reader. The proliferation inhibition rate was calculated and the half inhibitory concentration IC50 value was calculated using Graphpad Prism 6.0 software.

pIC50	SMILES
> 7.60	Cn1nc(N2CCC(=O)NC2=O)c2cc(F)c(N3CC4(CCN(C[C@@H]5CCCC[C@H]5CN5CCN(c6ccc([C@@H]7c8ccc(O)cc8CC[C@@H]7c7ccccc7)cc6)CC5)CC4)C3)cc21 [VI-27]
> 7.60	COC1(c2cc3c(cc2F)c(N2CCC(=O)NC2=O)nn3C)CCN(C[C@@H]2CCCC[C@H]2CN2CCN(c3ccc([C@@H]4c5ccc(O)cc5CC[C@@H]4c4ccccc4)cc3)CC2)CC1 [VI-28]
> 7.30	C[C@H]1CC(O)(c2cc3c(cc2F)c(N2CCC(=O)NC2=O)nn3C)CCN1C[C@@H]1CCCC[C@H]1CN1CCN(c2ccc([C@@H]3c4ccc(O)cc4CC[C@@H]3c3ccccc3)cc2)CC1 (stereo partly drawn) [VI-30, 1-(5-fluoro-6-((2S)-4-hydroxy-1-(((1R,2R)-2-((4-(4-((1R,2S)-6-hydroxy-2-phenyl-1,2,3,4-tetrahydronaphthalen-1-yl)phenyl)piperazin-1-yl)methyl)cyclohexyl)methyl)-2-methylpiperidin-4-yl)-1-methyl-1H-indazol-3-yl)dihydropyrimidine-2,4 (1H,3H)-dione]
> 7.30	Cn1c(=O)n(C2CCC(=O)NC2=O)c2cccc(N3CCN(C[C@@H]4CCCC[C@H]4CN4CCN(c5ccc([C@@H]6c7ccc(O)cc7CC[C@@H]6c6ccccc6)cc5)CC4)CC3)c21 (stereo partly drawn) [VII-1, 3-(4-(4-(((1R,2R)-2-((4-(4-((1R,2S)-6-hydroxy-2-phenyl-1,2,3,4-tetrahydronaphthalen-1-yl)phenyl)piperazin-1-yl)methyl)cyclohexyl)methyl)piperazin-1-yl)-3-methyl-2-oxo-2,3-dihydro-1H-benzo[d]imidazol-1-yl)piperidine-2,6-dione]
> 7.00	Cn1c(=O)n(C2CCC(=O)NC2=O)c2cccc(C3CCN(C[C@@H]4CCCC[C@H]4CN4CCN(c5ccc([C@@H]6c7ccc(O)cc7CC[C@@H]6c6ccccc6)cc5)CC4)CC3)c21 (some centres unmarked) [VII-3]

The remaining lines, values behind:

SMILES	pIC50
C[C@H]1CC(c2cc3c(cc2F)c(N2CCC(=O)NC2=O)nn3C)CCN1C[C@@H]1CCCC[C@H]1CN1CCN(c2ccc([C@@H]3c4ccc(O)cc4CC[C@@H]3c3ccccc3)cc2)CC1 (some centres unmarked) [VI-21]	> 7.30
C[C@@H]1CC(c2cc3c(cc2F)c(N2CCC(=O)NC2=O)nn3C)C[C@H](C)N1C[C@@H]1CCCC[C@H]1CN1CCN(c2ccc([C@@H]3c4ccc(O)cc4CC[C@@H]3c3ccccc3)cc2)CC1 (some centres unmarked) [VI-22]	> 7.30
Cn1nc(N2CCC(=O)NC2=O)c2cc(F)c(C3(O)CCN(C[C@@H]4CCCC[C@H]4CN4CCN(c5ccc([C@@H]6c7ccc(O)cc7CC[C@@H]6c6ccccc6)cc5)CC4)CC3)cc21 [VI-23, 1-(5-fluoro-6-(4-hydroxy-1-(((1R, 2R)-2-((4-(4-((1R, 2S)-6-hydroxy-2-phenyl-1,2,3,4-tetrahydronaphthalen-1-yl)phenyl)piperazin-1-yl)methyl)cyclohexyl)methyl)piperidin-4-yl)-1-methyl-1H-indazol-3-yl)dihydropyrimidine-2,4 (1H, 3H)-dione]	> 7.60
Cn1nc(N2CCC(=O)NC2=O)c2cc(F)c(C3CCC(N4CCN(C[C@@H]5CCCC[C@H]5CN5CCN(c6ccc([C@@H]7c8ccc(O)cc8CC[C@@H]7c7ccccc7)cc6)CC5)CC4)CC3)cc21 (some centres unmarked) [VI-24]	> 7.60
Cn1nc(N2CCC(=O)NC2=O)c2cc(F)c(C3CCC(N(C[C@@H]4CCCC[C@H]4CN4CCN(c5ccc([C@@H]6c7ccc(O)cc7CC[C@@H]6c6ccccc6)cc5)CC4)C4CC4)CC3)cc21 (some centres unmarked) [VI-25]	> 7.00
Cn1nc(N2CCC(=O)NC2=O)c2cc(F)c(N3CC4(CN(C[C@@H]5CCCC[C@H]5CN5CCN(c6ccc([C@@H]7c8ccc(O)cc8CC[C@@H]7c7ccccc7)cc6)CC5)C4)C3)cc21 [VI-26]	> 7.30
C[C@@H]1CC(O)(c2cc3c(cc2F)c(N2CCC(=O)NC2=O)nn3C)CCN1C[C@@H]1CCCC[C@H]1CN1CCN(c2ccc([C@@H]3c4ccc(O)cc4CC[C@@H]3c3ccccc3)cc2)CC1 (stereo partly drawn) [VI-29, 1-(5-fluoro-6-((2R)-4-hydroxy-1-(((1R, 2R)-2-((4-(4-((1R, 2S)-6-hydroxy-2-phenyl-1,2,3,4-tetrahydronaphthalen-1-yl)phenyl)piperazin-1-yl)methyl)cyclohexyl)methyl)-2-methylpiperidin-4-yl)-1-methyl-1H-indazol-3-yl)dihydropyrimidine-2,4 (1H,3H)-dione]	> 7.60
Cn1c(=O)n(C2CCC(=O)NC2=O)c2ccc(N3CCN(C[C@@H]4CCCC[C@H]4CN4CCN(c5ccc([C@@H]6c7ccc(O)cc7CC[C@@H]6c6ccccc6)cc5)CC4)CC3)cc21 (some centres unmarked) [VII-2]	> 7.00

System: MCF-7 tumor
Assay: In vivo tumor inhibitory activity test (MCF-7 tumor, estradiol-supplemented mice)
Settings: 5 mg/kg/d (I.V.), Day 19, relative tumor volume inhibition rate, P < 0.05
Description: Experimental Example 3: In Vivo Tumor Inhibitory Activity Test
MCF-7 cell culture (culture conditions: MEM medium+20% FBS+1% essential amino acids ++1 mg/100 ml insulin, 37° C., 5% CO2). The cells subcultured into the logarithmic growth phase were collected and transferred into a centrifuge tube, and centrifuged at 800 rpm for 5 min. On the day of inoculation, the cell density was adjusted to 3*10^7 cells/mL. […]
Grouped administration: When the average tumor volume reached 80-150 mm^3, the animals were randomly grouped according to tumor volume, with the coefficient of variation (CV) of tumor volumes not exceeding ⅓ of the mean volume. […] The body weight of the mice was measured before administration, and the administration was based on the body weight on that day. Experimental observation and data collection: After cell inoculation, the effect of the tumor on the normal behavior of the animals was routinely monitored every week. […] After the start of administration, the mice were weighed and dosed daily, and tumor volume was measured twice a week. The tumor volume was calculated as follows: tumor volume (mm^3)=0.52×tumor long diameter (mm) x tumor short diameter (mm) 2. […]
[formula] […] All data were analyzed using GraphPad Prism 6.0.

SMILES	TGI (Day 19)
Cn1nc(N2CCC(=O)NC2=O)c2cc(F)c(C3(O)CCN(C[C@@H]4CCCC[C@H]4CN4CCN(c5ccc([C@@H]6c7ccc(O)cc7CC[C@@H]6c6ccccc6)cc5)CC4)CC3)cc21 [VI-23, 1-(5-fluoro-6-(4-hydroxy-1-(((1R, 2R)-2-((4-(4-((1R, 2S)-6-hydroxy-2-phenyl-1,2,3,4-tetrahydronaphthalen-1-yl)phenyl)piperazin-1-yl)methyl)cyclohexyl)methyl)piperidin-4-yl)-1-methyl-1H-indazol-3-yl)dihydropyrimidine-2,4 (1H, 3H)-dione]	77.9%
